{"source": "paper PMC9311641", "about": "“Antitubercular, Cytotoxicity, and Computational Target Validation of Dihydroquinazolinone Derivatives” (Antibiotics, 2022)", "format_in_all_cases": "cell-based", "key": {"MTT cytotoxicity assay": {"assay": "MTT cytotoxicity assay", "conditions": "mean ± SD of three replicates", "description": "(§1) Fibroblast cells were cultured in Iscove’s Modified Dulbecco’s Medium (Euro Clone, Italy) as recommended by ATCC. The media was supplemented with 10% heat-inactivated fetal bovine serum (FBS) (Ebsdorfergrund, Germany), 1% of 2 mM L-glutamine, 100 U/mL penicillin, and 100 µg/mL streptomycin. According to the cells’ growth profile, fibroblast-seeding density was 1 × 10^5 cell/well. Cell viability was determined by trypan blue exclusion using a hemocytometer.\n(§2) The MTT colorimetric assay was used to assess the effect of the synthesized compounds on the viability of the fibroblast cell lines. […] A volume of 10 mL of the culture media was added, and the cell suspension was centrifuged at 1000 rpm for 10 min. The pellets were resuspended in a 10 mL medium to make a single-cell suspension. […] The cell suspension was diluted to give the optimal seeding density, and 100 µL of the cell suspension was plated in a 96-well plate. Cells were cultured at 37 °C in a humidified atmosphere of 5% CO2. After 24 h incubation, the cells were treated with 100 µM of the synthesized compounds (diluted in culture media to yield the required concentration) and then incubated for 72 h. At the end of the exposure time, 15 µL of MTT stock solution (5 mg/mL in sterile PBS, pH 7.4) (Promega, Madison, WI, USA) was added to each well and incubated for 3 h. After that, 100 µL of solubilizing stop solution was added to each well to solubilize the dark violet formazan crystals. The optical densities at 570 nm were then measured using a micro-plate reader (Biotek, Winooski, VT, USA), and the percentage of cell viability was calculated with respect to a control corresponding to untreated cells."}, "[1]": {"tested_on": "MDR strains of Mycobacterium tuberculosis", "assay": "Whole-cell anti-TB MIC, Resazurin Microplate Assay (REMA)", "conditions": "for Level of Activity (MIC), MDR: MDR MTB strains, REMA; for MIC: Mycobacterium tuberculosis, read-out: Level of Activity (MIC), MDR"}, "[2]": {"tested_on": "Mycobacterium tuberculosis H37Rv (ATCC 25177)", "assay": "Whole-cell anti-TB MIC, Resazurin Microplate Assay (REMA)", "conditions": "MTB H37Rv; for MIC: Mycobacterium tuberculosis, REMA, read-out: Level of Activity (MIC), Susceptible (H37Rv)"}, "[3]": {"tested_on": "normal human skin fibroblast cells (CCD-1064SK)", "assay": "MTT cytotoxicity assay", "conditions": "72 h, mean ± SD of three replicates", "description": "as §1, §2"}, "[4]": {"conditions": "human, CCD-1064SK normal human skin fibroblast cells"}}, "note": "Values joined by “and” are separate entries in the source; they are usually repeats but may differ in a detail not shown here. Identical values can stand only once."}
{"smiles": "COc1ccc(C2NC(=O)c3ccccc3N2)cc1OC", "note": "(centres unmarked) [Compound 3g]", "values": [{"measurement": "cytotoxicity at 72 h, 100 µM", "setting": "MTT cytotoxicity assay; [4]", "result": "32.5 ± 11", "unit": "%"}, {"measurement": "Level of Activity (MIC), MDR", "setting": "[1]", "result": "No activity"}, {"measurement": "MIC", "setting": "[2]", "result": 64, "unit": "µg/mL"}]}
{"smiles": "O=C1NC(c2ccc(F)cc2)Nc2ccccc21", "note": "(centres unmarked) [Compound 3j]", "values": [{"measurement": "cytotoxicity at 72 h, 100 µM", "setting": "MTT cytotoxicity assay; [4]", "result": "44.1 ± 11.5", "unit": "%"}, {"measurement": "Level of Activity (MIC), MDR", "setting": "[1]", "result": "No activity"}, {"measurement": "MIC", "setting": "[2]", "result": "> 64", "unit": "µg/mL"}]}
{"smiles": "O=C1NC(c2cc(Br)ccc2F)Nc2ccccc21", "note": "(centres unmarked) [Compound 3l, 2-(5-bromo-2-fluorophenyl)-2,3-dihydroquinazolin-4(1H)-one]", "values": [{"measurement": "cytotoxicity at 72 h, 100 µM", "setting": "MTT cytotoxicity assay; [4]", "result": 36, "unit": "%"}, {"measurement": "Cytotoxicity (%) at 100 µM", "setting": "[3]", "result": "36.3 ± 4.2", "unit": "%"}, {"measurement": "MIC", "setting": "[1]", "result": "> 64", "unit": "µg/mL"}, {"measurement": "MIC against susceptible H37Rv M. tuberculosis strain", "setting": "[2]", "result": 2, "unit": "µg/mL"}, {"measurement": "MIC", "setting": "[2]", "result": 2, "unit": "µg/mL"}]}
{"smiles": "O=C1NC(c2cccc(I)c2)Nc2ccccc21", "note": "(centres unmarked) [Compound 3e]", "values": [{"measurement": "cytotoxicity at 72 h, 100 µM", "setting": "MTT cytotoxicity assay; [4]", "result": "72 ± 8.3", "unit": "%"}, {"measurement": "Level of Activity (MIC), MDR", "setting": "[1]", "result": "No activity"}, {"measurement": "MIC", "setting": "[2]", "result": 128, "unit": "µg/mL"}]}
{"smiles": "O=C1NC(c2c[nH]cn2)Nc2ccccc21", "note": "(centres unmarked) [Compound 3k]", "values": [{"measurement": "cytotoxicity at 72 h, 100 µM", "setting": "MTT cytotoxicity assay; normal human fibroblast cells", "result": "19.2 ± 4.9", "unit": "%"}, {"measurement": "MIC", "setting": "[1]", "result": 16, "unit": "µg/mL"}, {"measurement": "MIC against susceptible H37Rv M. tuberculosis strain", "setting": "[2]", "result": 4, "unit": "µg/mL"}, {"measurement": "MIC", "setting": "[2]", "result": 4, "unit": "µg/mL"}]}
{"smiles": "O=C1NC(c2ccc(Cl)cc2)Nc2ccccc21", "note": "(centres unmarked) [Compound 3f]", "values": [{"measurement": "cytotoxicity at 72 h, 100 µM", "setting": "MTT cytotoxicity assay; [4]", "result": "57.6 ± 3.7", "unit": "%"}, {"measurement": "Level of Activity (MIC), MDR", "setting": "[1]", "result": "No activity"}, {"measurement": "MIC", "setting": "[2]", "result": "> 128", "unit": "µg/mL"}]}
{"smiles": "CN(C)c1ccc(C2NC(=O)c3ccccc3N2)cc1", "note": "(centres unmarked) [Compound 3h]", "values": [{"measurement": "cytotoxicity at 72 h, 100 µM", "setting": "MTT cytotoxicity assay; [4]", "result": "54.6 ± 2.8", "unit": "%"}, {"measurement": "Level of Activity (MIC), MDR", "setting": "[1]", "result": "No activity"}, {"measurement": "MIC", "setting": "[2]", "result": "> 128", "unit": "µg/mL"}]}
{"smiles": "COc1cc([N+](=O)[O-])ccc1C1NC(=O)c2ccccc2N1", "note": "(centres unmarked) [Compound 3m]", "values": [{"measurement": "cytotoxicity at 72 h, 100 µM", "setting": "MTT cytotoxicity assay; [4]", "result": 31, "unit": "%"}, {"measurement": "Cytotoxicity (%) at 100 µM", "setting": "[3]", "result": "30% and 30.9 ± 8.8%"}, {"measurement": "MIC", "setting": "[1]", "result": "> 64", "unit": "µg/mL"}, {"measurement": "MIC against susceptible H37Rv M. tuberculosis strain", "setting": "[2]", "result": 2, "unit": "µg/mL"}, {"measurement": "MIC", "setting": "[2]", "result": 2, "unit": "µg/mL"}]}
{"smiles": "O=C1NC(c2cccc(O)c2)Nc2ccccc21", "note": "(centres unmarked) [Compound 3c]", "values": [{"measurement": "cytotoxicity at 72 h, 100 µM", "setting": "MTT cytotoxicity assay; [4]", "result": "58.5 ± 1.1", "unit": "%"}, {"measurement": "MIC", "setting": "[1]", "result": "> 32", "unit": "µg/mL"}, {"measurement": "MIC", "setting": "[2]", "result": 8, "unit": "µg/mL"}]}
{"smiles": "O=C1NC(c2cccc([N+](=O)[O-])c2)Nc2ccccc21", "note": "(centres unmarked) [Compound 3i]", "values": [{"measurement": "cytotoxicity at 72 h, 100 µM", "setting": "MTT cytotoxicity assay; [4]", "result": "24.1 ± 3.9", "unit": "%"}, {"measurement": "Level of Activity (MIC), MDR", "setting": "[1]", "result": "No activity"}, {"measurement": "MIC", "setting": "[2]", "result": "> 64", "unit": "µg/mL"}]}
{"smiles": "N#Cc1ccc(C2NC(=O)c3ccccc3N2)cc1", "note": "(centres unmarked) [Compound 3b]", "values": [{"measurement": "cytotoxicity at 72 h, 100 µM", "setting": "MTT cytotoxicity assay; [4]", "result": "19.5 ± 5", "unit": "%"}, {"measurement": "Level of Activity (MIC), MDR", "setting": "[1]", "result": "No activity"}, {"measurement": "MIC", "setting": "[2]", "result": "> 64", "unit": "µg/mL"}]}
{"smiles": "COc1ccc(C2NC(=O)c3ccccc3N2)cc1", "note": "(centres unmarked) [Compound 3a]", "values": [{"measurement": "cytotoxicity at 72 h, 100 µM", "setting": "MTT cytotoxicity assay; normal human fibroblast cells", "result": "28.8 ± 0.6", "unit": "%"}, {"measurement": "MIC", "setting": "[1]", "result": "> 128", "unit": "µg/mL"}, {"measurement": "MIC", "setting": "[2]", "result": 64, "unit": "µg/mL"}]}
{"smiles": "O=C1NC(c2ccc(OC(F)(F)F)cc2)Nc2ccccc21", "note": "(centres unmarked) [Compound 3d]", "values": [{"measurement": "cytotoxicity at 72 h, 100 µM", "setting": "MTT cytotoxicity assay; [4]", "result": "47.6 ± 1.6", "unit": "%"}, {"measurement": "Level of Activity (MIC), MDR", "setting": "[1]", "result": "No activity"}, {"measurement": "MIC", "setting": "[2]", "result": "> 64", "unit": "µg/mL"}]}
